Experimental data from patent publication US10703764B2, “Benzopiperazine compositions as BET bromodomain inhibitors” (FORMA Therapeutics, Inc., priority 2013, dated 2020).

Columns and labels:
BRD4 BD1 = target: T1, BRD4 BD1 (Homo sapiens, UniProt O60885); test: AlphaScreen binding assay, BRD4 Bromodomain 1
T1 construct: made in house
Procedure, shortened: (§1)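 Compound dilution series were mixed with His-tagged BRD4 bromodomain and biotinylated tetra-acetylated H4 (1-21) peptide at pH 7.3 (BD1 and peptide at 50 nM, BD2 and peptide at 100 nM). Donor and acceptor beads were then added, and plates were equilibrated at least 1 h before reading. IC50 values were fitted with a four-parameter logistic model.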

BRD4 BD2 = target: T2, BRD4 BD2 (Homo sapiens, UniProt O60885); test: AlphaScreen binding assay, BRD4 Bromodomain 2
T2 construct: made in house
Procedure, shortened: as §1

MV4-11 cells = test: Oncology cell growth assay (3-day proliferation, CellTiter-Glo); assay type: cell-based; conditions: Homo sapiens, MV4-11, 72 h, AML cell line MV4-11, 72 hours, compounds grouped by IC50 range, read-out: MV4-11 IC50 (inhibition of proliferation, gIC50)
Procedure, shortened: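 MV4-11 AML cells (RPMI 1640, 10% FBS) plated at 3000 cells/well and exposed 72 h to compound at final 10 to 0.0045 μM (3-fold series). Viability read by CellTiter-Glo luminescence; gIC50 from four-parameter logistic fit between DMSO control and no-cell background.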

Row | IC50 (BRD4 BD1) | IC50 (BRD4 BD2) | IC50 (MV4-11 cells) | SMILES
1 | 100 to 1000 nM | < 50 nM | 100 to 500 nM | CC(=O)N1c2ccc(-c3cnn(CC(=O)N(C)C4CC4)c3)cc2N(C(=O)OC(C)C)C[C@@H]1C [Example I-596]
2 | 100 to 1000 nM | 50 to 500 nM | 100 to 500 nM | CC(=O)N1c2ccc(-c3cnn(CCN4CCCS4(=O)=O)c3)cc2N(C(=O)OC(C)C)C[C@@H]1C [Example I-597]
3 | 100 to 1000 nM | 50 to 500 nM | 100 to 500 nM | CC(=O)N1c2ccc(-c3cnn(CCn4ccnc4)c3)cc2N(C(=O)OC(C)C)C[C@@H]1C [Example I-598]
4 | 100 to 1000 nM | < 50 nM | 100 to 500 nM | CC(=O)N1c2ccc(-c3cnn(Cc4c[nH]cn4)c3)cc2N(C(=O)OC(C)C)CC1C (stereo not drawn) [Example I-601]
5 | 100 to 1000 nM | 50 to 500 nM | 100 to 500 nM | CC(=O)N1c2ccc(-c3cnn(CC4CCC4)c3)cc2N(C(=O)OC(C)C)C[C@@H]1C [Example I-603]
6 | 100 to 1000 nM | < 50 nM | 100 to 500 nM | CC(=O)N1c2ccc(-c3cnn(CCC(N)=O)c3)cc2N(C(=O)OC(C)C)C[C@@H]1C [Example I-606]
7 | 100 to 1000 nM | 50 to 500 nM | 100 to 500 nM | CC(=O)N1c2ccc(-c3cnn(CC4CCOCC4)c3)cc2N(C(=O)OC(C)C)C[C@@H]1C [Example I-608]
8 | 100 to 1000 nM | 50 to 500 nM | > 500 nM | CC(C)OC(=O)N1C[C@H](C)N(C(=O)C2CC2)c2ccc(-c3cnn(CC4CCS(=O)(=O)CC4)c3)cc21 [Example I-609]
9 | 100 to 1000 nM | 50 to 500 nM | > 500 nM | CC(C)OC(=O)N1C[C@H](C)N(C(=O)C2CC2)c2ccc(-c3cnn(CCN4CCCS4(=O)=O)c3)cc21 [Example I-611]
10 | 100 to 1000 nM | 50 to 500 nM | > 500 nM | CC(C)OC(=O)N1C[C@H](C)N(C(=O)C2CC2)c2ccc(-c3cnn(CCn4ccnc4)c3)cc21 [Example I-612]
11 | 100 to 1000 nM | 50 to 500 nM | 100 to 500 nM | CC(C)OC(=O)N1C[C@H](C)N(C(=O)C2CC2)c2ccc(-c3cnn(CC4(CO)COC4)c3)cc21 [Example I-615]
12 | 100 to 1000 nM | 50 to 500 nM | 100 to 500 nM | CC(C)OC(=O)N1CC(C)N(C(=O)C2CC2)c2ccc(-c3cnn(Cc4c[nH]cn4)c3)cc21 (stereo not drawn) [Example I-616]
13 | 100 to 1000 nM | 50 to 500 nM | 100 to 500 nM | Cc1noc(C)c1Cn1cc(-c2ccc3c(c2)N(C(=O)OC(C)C)C[C@H](C)N3C(=O)C2CC2)cn1 [Example I-617]
14 | 1000 to 10000 nM | > 500 nM | 100 to 500 nM | CC(C)OC(=O)N1C[C@H](C)N(C(=O)C2CC2)c2ccc(-c3cnn(CC4CCC4)c3)cc21 [Example I-618]
15 | 100 to 1000 nM | 50 to 500 nM | 100 to 500 nM | CC(C)OC(=O)N1C[C@H](C)N(C(=O)C2CC2)c2ccc(-c3cnn(CC(F)(F)F)c3)cc21 [Example I-619]
16 | 100 to 1000 nM | 50 to 500 nM | 100 to 500 nM | CC(C)OC(=O)N1C[C@H](C)N(C(=O)C2CC2)c2ccc(-c3cnn(CC4(C)COC4)c3)cc21 [Example I-620]
17 | 100 to 1000 nM | 50 to 500 nM | > 500 nM | CC(C)OC(=O)N1C[C@H](C)N(C(=O)C2CC2)c2ccc(-c3cnn(CCC(N)=O)c3)cc21 [Example I-621]
18 | 100 to 1000 nM | 50 to 500 nM | 100 to 500 nM | CC(C)OC(=O)N1C[C@H](C)N(C(=O)C2CC2)c2ccc(-c3cnn(CC4CCOCC4)c3)cc21 [Example I-623]
19 | 100 to 1000 nM | 50 to 500 nM | > 500 nM | COC(=O)N1c2ccc(-c3cnn(CCN4CCCS4(=O)=O)c3)cc2N(C(=O)OC(C)C)C[C@@H]1C [Example I-626]
20 | 100 to 1000 nM | 50 to 500 nM | > 500 nM | COC(=O)N1c2ccc(-c3cnn(CCn4ccnc4)c3)cc2N(C(=O)OC(C)C)C[C@@H]1C [Example I-627]
21 | 100 to 1000 nM | 50 to 500 nM | 100 to 500 nM | COC(=O)N1c2ccc(-c3cnn(CCN4CCCC4=O)c3)cc2N(C(=O)OC(C)C)C[C@@H]1C [Example I-628]
22 | 100 to 1000 nM | 50 to 500 nM | 100 to 500 nM | COC(=O)N1c2ccc(-c3cnn(Cc4cnccn4)c3)cc2N(C(=O)OC(C)C)C[C@@H]1C [Example I-633]

The remaining lines, values behind:

Row | SMILES | IC50 (BRD4 BD1) | IC50 (BRD4 BD2) | IC50 (MV4-11 cells)
23 | CC(=O)N1c2ccc(-c3ccc(C(=O)N4CC(O)C4)cc3)cc2N(C(=O)OC(C)C)C[C@@H]1C [Example I-582] | 100 to 1000 nM | 50 to 500 nM | 100 to 500 nM
24 | CC(=O)N1c2ccc(-c3ccc(C(=O)NCc4ncco4)cc3)cc2N(C(=O)OC(C)C)C[C@@H]1C [Example I-584] | 100 to 1000 nM | 50 to 500 nM | 100 to 500 nM
25 | CC(=O)N1c2ccc(-c3ccc(C(=O)N4CC[C@H](N)C4)cc3)cc2N(C(=O)OC(C)C)C[C@@H]1C [Example I-586] | 100 to 1000 nM | 50 to 500 nM | 100 to 500 nM
26 | CC(=O)N1c2ccc(-c3ccc(C(=O)N4CCC[C@@H](N)C4)cc3)cc2N(C(=O)OC(C)C)C[C@@H]1C [Example I-589] | 100 to 1000 nM | 50 to 500 nM | 100 to 500 nM
27 | CC(=O)N1c2ccc(-c3ccc(C(=O)N4CCC(N)CC4)cc3)cc2N(C(=O)OC(C)C)C[C@@H]1C [Example I-590] | 100 to 1000 nM | 50 to 500 nM | 100 to 500 nM
28 | CC(=O)N1c2ccc(-c3ccc(C(=O)N4CCCC[C@@H]4CN)cc3)cc2N(C(=O)OC(C)C)C[C@@H]1C [Example I-591] | 100 to 1000 nM | 50 to 500 nM | 100 to 500 nM
29 | CC(=O)N1c2ccc(-c3ccc(C(=O)N4CCC[C@@H]4CN)cc3)cc2N(C(=O)OC(C)C)C[C@@H]1C [Example I-592] | 100 to 1000 nM | 50 to 500 nM | 100 to 500 nM
30 | CC(=O)N1c2ccc(-c3ccc(C(=O)N4C[C@@H]5C[C@H]4CN5)cc3)cc2N(C(=O)OC(C)C)C[C@@H]1C [Example I-593] | 100 to 1000 nM | 50 to 500 nM | 100 to 500 nM
31 | CC(=O)N1c2ccc(-c3ccc(C(=O)N[C@H]4C[C@H]5CC[C@@H](C4)N5)cc3)cc2N(C(=O)OC(C)C)C[C@@H]1C [Example I-594] | 100 to 1000 nM | 50 to 500 nM | 100 to 500 nM
32 | CC(=O)N1c2ccc(-c3cnn(CC4CCS(=O)(=O)CC4)c3)cc2N(C(=O)OC(C)C)C[C@@H]1C [Example I-595] | 100 to 1000 nM | 50 to 500 nM | 100 to 500 nM
33 | CC(=O)N1c2ccc(-c3cnn(CC(=O)N4CCCCC4)c3)cc2N(C(=O)OC(C)C)C[C@@H]1C [Example I-599] | 100 to 1000 nM | < 50 nM | 100 to 500 nM
34 | CC(=O)N1c2ccc(-c3cnn(CC4(CO)COC4)c3)cc2N(C(=O)OC(C)C)C[C@@H]1C [Example I-600] | < 100 nM | < 50 nM | 100 to 500 nM
35 | CC(=O)N1c2ccc(-c3cnn(Cc4c(C)noc4C)c3)cc2N(C(=O)OC(C)C)C[C@@H]1C [Example I-602] | 100 to 1000 nM | < 50 nM | 100 to 500 nM
36 | CC(=O)N1c2ccc(-c3cnn(CC(F)(F)F)c3)cc2N(C(=O)OC(C)C)C[C@@H]1C [Example I-604] | < 100 nM | 50 to 500 nM | 100 to 500 nM
37 | CC(=O)N1c2ccc(-c3cnn(CC4(C)COC4)c3)cc2N(C(=O)OC(C)C)C[C@@H]1C [Example I-605] | 100 to 1000 nM | 50 to 500 nM | 100 to 500 nM
38 | CC(=O)N1c2ccc(-c3cnn(CC#N)c3)cc2N(C(=O)OC(C)C)C[C@@H]1C [Example I-607] | 100 to 1000 nM | 50 to 500 nM | 100 to 500 nM
39 | COC(=O)N1c2ccc(-c3cnn(CC4CCS(=O)(=O)CC4)c3)cc2N(C(=O)OC(C)C)C[C@@H]1C [Example I-624] | 100 to 1000 nM | 50 to 500 nM | > 500 nM
40 | COC(=O)N1c2ccc(-c3cnn(CC(=O)N(C)C4CC4)c3)cc2N(C(=O)OC(C)C)C[C@@H]1C [Example I-625] | 100 to 1000 nM | 50 to 500 nM | > 500 nM
41 | COC(=O)N1c2ccc(-c3cnn(CC4(CO)COC4)c3)cc2N(C(=O)OC(C)C)C[C@@H]1C [Example I-630] | < 100 nM | 50 to 500 nM | 100 to 500 nM
42 | COC(=O)N1c2ccc(-c3cnn(Cc4c[nH]cn4)c3)cc2N(C(=O)OC(C)C)CC1C (stereo not drawn) [Example I-631] | 100 to 1000 nM | 50 to 500 nM | > 500 nM
43 | COC(=O)N1c2ccc(-c3cnn(Cc4cncnc4)c3)cc2N(C(=O)OC(C)C)C[C@@H]1C [Example I-632] | 100 to 1000 nM | 50 to 500 nM | 100 to 500 nM
44 | COC(=O)N1c2ccc(-c3cnn(Cc4c(C)noc4C)c3)cc2N(C(=O)OC(C)C)C[C@@H]1C [Example I-634] | 100 to 1000 nM | 50 to 500 nM | 100 to 500 nM
45 | COC(=O)N1c2ccc(-c3cnn(CC(F)(F)F)c3)cc2N(C(=O)OC(C)C)C[C@@H]1C [Example I-636] | 100 to 1000 nM | > 500 nM | > 500 nM
46 | COC(=O)N1c2ccc(-c3cnn(CC4(C)COC4)c3)cc2N(C(=O)OC(C)C)C[C@@H]1C [Example I-637] | 100 to 1000 nM | 50 to 500 nM | 100 to 500 nM
47 | COC(=O)N1c2ccc(-c3cnn(CCC(N)=O)c3)cc2N(C(=O)OC(C)C)C[C@@H]1C [Example I-638] | 100 to 1000 nM | 50 to 500 nM | > 500 nM
48 | COC(=O)N1c2ccc(-c3cnn(Cc4ccncc4)c3)cc2N(C(=O)OC(C)C)C[C@@H]1C [Example I-640] | 100 to 1000 nM | 50 to 500 nM | > 500 nM
